# Laboratory results as given in patent US20100222322A1, “Non-Nucleoside Reverse Transcriptase Inhibitors” (MERCK & CO., INC., priority 2005, published 2010).
# Like-named read-outs stand apart in the source and are kept apart here.
# Tested on: HIV replication in T-lymphoid cells
# Experiment: Spread assay: inhibition of acute HIV infection of T-lymphoid cells
# Type: cell-based
# Conditions: read-out: IC95, spread assay (inhibition of HIV replication)
# Description: An assay for the inhibition of acute HIV infection of T-lymphoid cells (alternatively referred to herein as the “spread assay”) was conducted in accordance with Vacca, J. P. et al., Proc. Natl. Acad. Sci. USA 1994, 91: 4096. […] The compounds of Examples 26, 29, 30, 33-35 and 62 were tested in the spread assay up to 10 micromolar, but specific IC95 values were not obtained; i.e., the IC95 values were greater than 10 micromolar. The compounds of Examples 47 and 61 were not tested.
# [1] = Human immunodeficiency virus 1, acute HIV infection of T-lymphoid cells, tested up to 10 micromolar
# [2] = Human immunodeficiency virus 1, T-lymphoid
compound,measurement,setting,value
"COC1CCCN(S(=O)(=O)c2c(C(N)=O)[nH]c3ccc(Br)cc23)C1 (stereo not drawn) [Example 20, 5-bromo-3-[(3-methoxypiperidin-1-yl)sulfonyl]-1H-indole-2-carboxamide]",IC95,[1],< 1000 nM
"NC(=O)c1[nH]c2ccc(Cl)cc2c1S(=O)(=O)N1CCCC(F)C1 (stereo not drawn) [Example 41, 5-chloro-3-[(3-fluoropiperidin-1-yl)sulfonyl]-1H-indole-2-carboxamide]",IC95,[1],< 1000 nM
"NC(=O)c1[nH]c2ccc(Br)cc2c1S(=O)(=O)N1CCC(F)(F)C1 [Example 42, 5-bromo-3-[(3,3-difluoropyrrolidin-1-yl)sulfonyl]-1H-indole-2-carboxamide]",IC95,[1],< 1000 nM
"O=C(NCc1nc2cccnc2[nH]1)c1[nH]c2ccc(Br)cc2c1S(=O)(=O)N1CCCC1 [Example 63, 5-bromo-N-(3H-imidazo[4,5-b]pyridin-2-ylmethyl)-3-(pyrrolidin-1-ylsulfonyl)-1H-indole-2-carboxamide]",IC95,[1],< 1000 nM
"NC(=O)c1[nH]c2ccc(Br)cc2c1S(=O)(=O)NC1CCC1 [Example 44, 5-bromo-3-[(cyclobutylamino)sulfonyl]-1H-indole-2-carboxamide]",IC95,[1],< 1000 nM
"NC(=O)c1[nH]c2ccc(Br)cc2c1S(=O)(=O)N1CCC(F)CC1 [Example 45, 5-bromo-3-[(4-fluoropiperidin-1-yl)sulfonyl]-1H-indole-2-carboxamide]",IC95,[1],< 1000 nM
"O=C(NCc1ccccn1)c1[nH]c2ccc(Br)cc2c1S(=O)(=O)N1CCCC1 [Example 54, 5-bromo-N-(pyridin-2-ylmethyl)-3-(pyrrolidin-1-ylsulfonyl)-1H-indole-2-carboxamide]",IC95,[1],< 1000 nM
"CCCNS(=O)(=O)c1c(C(N)=O)[nH]c2ccc(Br)cc12 [Example 23, 5-bromo-3-[(propylamino)sulfonyl]-1H-indole-2-carboxamide]",IC95,[1],< 1000 nM
"O=C(NCc1ncc(-c2ccccc2)[nH]1)c1[nH]c2ccc(Br)cc2c1S(=O)(=O)N1CCCC1 [Example 62, 5-bromo-N-[(5-phenyl-1H-imidazol-2-yl)methyl]-3-(pyrrolidin-1-ylsulfonyl)-1H-indole-2-carboxamide]",IC95,[1],> 10000 nM
"CN1CCC(CNC(=O)c2[nH]c3ccc(Br)cc3c2S(=O)(=O)N2CCCC2)C1 (stereo not drawn) [Example 60, 5-bromo-N-[(1-methylpyrrolidin-3-yl)methyl]-3-(pyrrolidin-1-ylsulfonyl)-1H-indole-2-carboxamide]",IC95,[1],< 1000 nM
"COCCNC(=O)c1[nH]c2ccc(Br)cc2c1S(=O)(=O)N1CCCC1 [Example 56, 5-bromo-N-(2-methoxyethyl)-3-(pyrrolidin-1-ylsulfonyl)-1H-indole-2-carboxamide]",IC95,[1],< 1000 nM
"NC(=O)c1[nH]c2ccc(Cl)cc2c1S(=O)(=O)N1CCCC1C(F)(F)F (stereo not drawn) [Example 40, 5-chloro-3-{[2-(trifluoromethyl)pyrrolidin-1-yl]sulfonyl}-1H-indole-2-carboxamide]",IC95,[1],< 1000 nM
"O=C(NCc1ccon1)c1[nH]c2ccc(Br)cc2c1S(=O)(=O)N1CCCC1 [Example 58, 5-bromo-N-(isoxazol-3-ylmethyl)-3-(pyrrolidin-1-ylsulfonyl)-1H-indole-2-carboxamide]",IC95,[1],< 1000 nM
"O=C(NCCCn1ccnc1)c1[nH]c2ccc(Br)cc2c1S(=O)(=O)N1CCCC1 [Example 52, 5-bromo-N-[3-(1H-imidazol-1-yl)propyl]-3-(pyrrolidin-1-ylsulfonyl)-1H-indole-2-carboxamide]",IC95,[1],< 1000 nM
"CCOC(=O)c1[nH]c2ccc(Br)cc2c1S(=O)(=O)N1CCCC1C(F)(F)F (stereo not drawn) [Example 30, ethyl 5-bromo-3-{[2-(trifluoromethyl)pyrrolidin-1-yl]sulfonyl}-1H-indole-2-carboxylate]",IC95,[2],> 10000 nM
"CCOC(=O)c1[nH]c2ccc(Br)cc2c1S(=O)(=O)N1CCCCC1 [Example 27, ethyl 5-bromo-3-(piperidin-1-ylsulfonyl)-1H-indole-2-carboxylate]",IC95,[2],1000 to 10000 nM
"CCOC(=O)c1[nH]c2ccc(Br)cc2c1S(=O)(=O)NCCOC [Example 28, ethyl 5-bromo-3-{[(2-methoxyethyl)amino]sulfonyl}-1H-indole-2-carboxylate]",IC95,[2],< 1000 nM
"COC(=O)c1[nH]c2ccc(Br)cc2c1S(=O)(=O)N1CCCCC1 [Example 24, methyl 5-bromo-3-(piperidin-1-ylsulfonyl)-1H-indole-2-carboxylate]",IC95,[1],< 1000 nM
"O=C(NCCO)c1[nH]c2ccc(Br)cc2c1S(=O)(=O)NC1CC1 [Example 33, 5-bromo-3-[(cyclopropylamino)sulfonyl]-N-(2-hydroxyethyl)-1H-indole-2-carboxamide]",IC95,[1],> 10000 nM
"COC(=O)c1[nH]c2ccc(Br)cc2c1S(=O)(=O)NC1CCCC1 [Example 26, methyl 5-bromo-3-[(cyclopentylamino)sulfonyl]-1H-indole-2-carboxylate]",IC95,[2],> 10000 nM
"C=Cc1ccc2[nH]c(C(N)=O)c(S(=O)(=O)N3CCCC3)c2c1 [Example 66, 3-(pyrrolidin-1-ylsulfonyl)-5-vinyl-1H-indole-2-carboxamide]",IC95,[1],< 1000 nM
"NC(=O)c1[nH]c2ccc(Br)cc2c1S(=O)(=O)N1CCC(F)C1 (stereo not drawn) [Example 22, 5-bromo-3-[(3-fluoropyrrolidin-1-yl)sulfonyl]-1H-indole-2-carboxamide]",IC95,[1],< 1000 nM
"O=C(NCc1cccnc1)c1[nH]c2ccc(Br)cc2c1S(=O)(=O)N1CCCC1 [Example 50, 5-bromo-N-(pyridin-3-ylmethyl)-3-(pyrrolidin-1-ylsulfonyl)-1H-indole-2-carboxamide]",IC95,[1],< 1000 nM
"COC(=O)c1[nH]c2ccc(Br)cc2c1S(=O)(=O)N1CCCC1 [Example 25, methyl 5-bromo-3-(pyrrolidin-1-ylsulfonyl)-1H-indole-2-carboxylate]",IC95,[1],< 1000 nM
"NC(=O)c1[nH]c2ccc(Cl)cc2c1S(=O)(=O)N1CCC1 [Example 7, 3-(azetidin-1-ylsulfonyl)-5-chloro-1H-indole-2-carboxamide]",IC95,[1],< 1000 nM
"NC(=O)c1[nH]c2ccc(Br)cc2c1S(=O)(=O)N1CCC(F)(F)CC1 [Example 43, 5-bromo-3-[(4,4-difluoropiperidin-1-yl)sulfonyl]-1H-indole-2-carboxamide]",IC95,[1],< 1000 nM
"O=C(NCCc1cnc[nH]1)c1[nH]c2ccc(Br)cc2c1S(=O)(=O)N1CCCC1 [Example 49, 5-bromo-N-[2-(1H-imidazol-5-yl)ethyl]-3-(pyrrolidin-1-ylsulfonyl)-1H-indole-2-carboxamide]",IC95,[1],< 1000 nM
"NS(=O)(=O)c1ccc(CNC(=O)c2[nH]c3ccc(Br)cc3c2S(=O)(=O)N2CCCC2)cc1 [Example 55, N-[4-(aminosulfonyl)benzyl]-5-bromo-3-(pyrrolidin-1-ylsulfonyl)-1H-indole-2-carboxamide]",IC95,[1],< 1000 nM
"NC(=O)c1[nH]c2ccc(Cl)cc2c1S(=O)(=O)NC1CCC1 [Example 3, 5-chloro-3-[(cyclobutylamino)sulfonyl]-1H-indole-2-carboxamide]",IC95,[1],< 1000 nM
"NC(=O)c1[nH]c2ccc(Cl)cc2c1S(=O)(=O)N1CCC(F)CC1 [Example 46, 5-chloro-3-[(4-fluoropiperidin-1-yl)sulfonyl]-1H-indole-2-carboxamide]",IC95,[1],< 1000 nM
"CCOC(=O)c1[nH]c2ccc(Br)cc2c1S(=O)(=O)NC1CCCC1 [Example 29, ethyl 5-bromo-3-[(cyclopentylamino)sulfonyl]-1H-indole-2-carboxylate]",IC95,[2],> 10000 nM
"O=C1CN(S(=O)(=O)c2c(C(=O)NCCO)[nH]c3ccc(Br)cc23)CCN1 [Example 36, 5-bromo-N-(2-hydroxyethyl)-3-[(3-oxopiperazin-1-yl)sulfonyl]-1H-indole-2-carboxamide]",IC95,[2],1000 to 10000 nM
"O=C(NCCO)c1[nH]c2ccc(Br)cc2c1S(=O)(=O)NC1CCCCC1 [Example 34, 5-bromo-3-[(cyclohexylamino)sulfonyl]-N-(2-hydroxyethyl)-1H-indole-2-carboxamide]",IC95,[1],> 10000 nM
"O=C(NCc1cscn1)c1[nH]c2ccc(Br)cc2c1S(=O)(=O)N1CCCC1 [Example 57, 5-bromo-3-(pyrrolidin-1-ylsulfonyl)-N-(1,3-thiazol-4-ylmethyl)-1H-indole-2-carboxamide]",IC95,[1],< 1000 nM
"NC(=O)c1[nH]c2ccc(-c3cccc4ncccc34)cc2c1S(=O)(=O)N1CCCC1 [Example 67, 3-(pyrrolidin-1-ylsulfonyl)-5-quinolin-5-yl-1H-indole-2-carboxamide]",IC95,[1],< 1000 nM
"O=C(NCCO)c1[nH]c2ccc(Br)cc2c1S(=O)(=O)NC1CCCC1 [Example 35, 5-bromo-3-[(cyclopentylamino)sulfonyl]-N-(2-hydroxyethyl)-1H-indole-2-carboxamide]",IC95,[1],> 10000 nM
